Reference: paper PMC11345841, “Exploring 2-Sulfonylpyrimidine Warheads as Acrylamide Surrogates for Targeted Covalent Inhibition: A BTK Story” (Journal of Medicinal Chemistry, 2024)
Read-outs that look alike come from different tables or passages of the source.

Key:
Test in all cases: KINOMEscan ScanTK
Format in all cases: binding
[1] = target: T1, ABL1(F317I)-nonphosphorylated (Homo sapiens, UniProt P00519, F317I)
T1 construct: purchased Eurofins DiscoverX KINOMEscan (scanTK)

[2] = target: T2, ABL1(F317I)-phosphorylated (Homo sapiens, UniProt P00519, F317I)
T2 construct: purchased Eurofins DiscoverX KINOMEscan (scanTK)

[3] = target: T3, ABL1(Q252H)-nonphosphorylated (Homo sapiens, UniProt P00519, Q252H)
T3 construct: purchased Eurofins DiscoverX KINOMEscan (scanTK)

[4] = target: T4, BLK (Homo sapiens, UniProt P51451); details: BLK; for difference in %Control vs reference Ib at 1 µM: read-out: % difference (compound - Ib %Control)
T4 construct: purchased Eurofins DiscoverX KINOMEscan (scanTK)
T4 sequence (P51451 whole entry): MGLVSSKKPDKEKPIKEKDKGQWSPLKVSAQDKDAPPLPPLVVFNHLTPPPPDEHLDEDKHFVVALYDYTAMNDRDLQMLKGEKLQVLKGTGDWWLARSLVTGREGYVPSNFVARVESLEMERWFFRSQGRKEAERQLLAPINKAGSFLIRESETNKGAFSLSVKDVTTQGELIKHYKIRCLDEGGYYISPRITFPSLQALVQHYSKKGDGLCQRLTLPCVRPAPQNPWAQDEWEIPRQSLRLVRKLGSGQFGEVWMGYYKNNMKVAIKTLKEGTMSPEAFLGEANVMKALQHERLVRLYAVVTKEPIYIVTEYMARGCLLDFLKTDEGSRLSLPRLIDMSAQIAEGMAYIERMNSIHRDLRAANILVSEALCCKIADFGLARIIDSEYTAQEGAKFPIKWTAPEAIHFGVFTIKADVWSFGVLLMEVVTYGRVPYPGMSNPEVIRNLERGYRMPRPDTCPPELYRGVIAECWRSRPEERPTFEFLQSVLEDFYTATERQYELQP

[5] = target: T5, EGFR(E746-A750del) (Homo sapiens, UniProt P00533, DEL746-750)
T5 construct: purchased Eurofins DiscoverX KINOMEscan (scanTK)
T5 sequence (P00533 with tags, fused parts or gaps DEL746-750 limits assumed): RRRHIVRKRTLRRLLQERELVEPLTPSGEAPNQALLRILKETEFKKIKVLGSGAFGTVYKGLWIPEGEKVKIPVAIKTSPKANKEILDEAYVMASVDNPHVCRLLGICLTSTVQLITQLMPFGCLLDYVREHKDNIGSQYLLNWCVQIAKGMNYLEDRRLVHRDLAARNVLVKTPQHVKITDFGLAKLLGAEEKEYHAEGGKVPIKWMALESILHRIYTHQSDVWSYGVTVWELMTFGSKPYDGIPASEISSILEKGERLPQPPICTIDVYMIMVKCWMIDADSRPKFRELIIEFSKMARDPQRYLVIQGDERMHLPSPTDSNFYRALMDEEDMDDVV

[6] = tested on: EGFR(L747-T751del,Sins); details: for % difference (compound - Ib %Control) / %Control: @1000nM
[7] = target: T6, EPHA6 (Homo sapiens, UniProt Q9UF33)
T6 construct: purchased Eurofins DiscoverX KINOMEscan (scanTK)
T6 sequence (Q9UF33 23-1036): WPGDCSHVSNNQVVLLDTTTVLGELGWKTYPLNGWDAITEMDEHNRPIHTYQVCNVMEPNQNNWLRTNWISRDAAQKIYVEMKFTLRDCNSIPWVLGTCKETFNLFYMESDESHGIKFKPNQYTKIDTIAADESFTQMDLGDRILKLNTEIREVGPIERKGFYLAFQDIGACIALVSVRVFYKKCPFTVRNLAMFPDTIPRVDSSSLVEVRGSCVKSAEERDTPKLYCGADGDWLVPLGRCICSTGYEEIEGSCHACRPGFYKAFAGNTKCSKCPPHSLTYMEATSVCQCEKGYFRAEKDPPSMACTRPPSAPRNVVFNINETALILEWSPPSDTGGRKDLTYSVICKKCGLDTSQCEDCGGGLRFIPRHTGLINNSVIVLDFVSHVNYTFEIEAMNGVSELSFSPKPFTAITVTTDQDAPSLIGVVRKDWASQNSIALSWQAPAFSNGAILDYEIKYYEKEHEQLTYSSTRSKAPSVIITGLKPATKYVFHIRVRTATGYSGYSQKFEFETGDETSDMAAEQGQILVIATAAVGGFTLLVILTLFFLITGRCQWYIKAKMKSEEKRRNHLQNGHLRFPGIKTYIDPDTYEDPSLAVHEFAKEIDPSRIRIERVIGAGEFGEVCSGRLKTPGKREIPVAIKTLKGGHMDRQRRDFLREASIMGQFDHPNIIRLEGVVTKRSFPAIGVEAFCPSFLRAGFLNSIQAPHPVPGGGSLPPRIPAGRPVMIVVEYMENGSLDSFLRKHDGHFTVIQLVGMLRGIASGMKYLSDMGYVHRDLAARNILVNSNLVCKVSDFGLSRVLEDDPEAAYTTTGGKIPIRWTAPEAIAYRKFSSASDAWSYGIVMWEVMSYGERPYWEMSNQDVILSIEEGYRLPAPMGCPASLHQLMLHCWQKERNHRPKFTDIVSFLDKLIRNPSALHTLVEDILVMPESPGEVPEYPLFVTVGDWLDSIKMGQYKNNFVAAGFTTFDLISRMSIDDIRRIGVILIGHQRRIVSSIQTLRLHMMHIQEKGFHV

[8] = target: T7, EPHB3 (Homo sapiens, UniProt P54753)
T7 construct: purchased Eurofins DiscoverX KINOMEscan (scanTK)
T7 sequence (P54753 34-998): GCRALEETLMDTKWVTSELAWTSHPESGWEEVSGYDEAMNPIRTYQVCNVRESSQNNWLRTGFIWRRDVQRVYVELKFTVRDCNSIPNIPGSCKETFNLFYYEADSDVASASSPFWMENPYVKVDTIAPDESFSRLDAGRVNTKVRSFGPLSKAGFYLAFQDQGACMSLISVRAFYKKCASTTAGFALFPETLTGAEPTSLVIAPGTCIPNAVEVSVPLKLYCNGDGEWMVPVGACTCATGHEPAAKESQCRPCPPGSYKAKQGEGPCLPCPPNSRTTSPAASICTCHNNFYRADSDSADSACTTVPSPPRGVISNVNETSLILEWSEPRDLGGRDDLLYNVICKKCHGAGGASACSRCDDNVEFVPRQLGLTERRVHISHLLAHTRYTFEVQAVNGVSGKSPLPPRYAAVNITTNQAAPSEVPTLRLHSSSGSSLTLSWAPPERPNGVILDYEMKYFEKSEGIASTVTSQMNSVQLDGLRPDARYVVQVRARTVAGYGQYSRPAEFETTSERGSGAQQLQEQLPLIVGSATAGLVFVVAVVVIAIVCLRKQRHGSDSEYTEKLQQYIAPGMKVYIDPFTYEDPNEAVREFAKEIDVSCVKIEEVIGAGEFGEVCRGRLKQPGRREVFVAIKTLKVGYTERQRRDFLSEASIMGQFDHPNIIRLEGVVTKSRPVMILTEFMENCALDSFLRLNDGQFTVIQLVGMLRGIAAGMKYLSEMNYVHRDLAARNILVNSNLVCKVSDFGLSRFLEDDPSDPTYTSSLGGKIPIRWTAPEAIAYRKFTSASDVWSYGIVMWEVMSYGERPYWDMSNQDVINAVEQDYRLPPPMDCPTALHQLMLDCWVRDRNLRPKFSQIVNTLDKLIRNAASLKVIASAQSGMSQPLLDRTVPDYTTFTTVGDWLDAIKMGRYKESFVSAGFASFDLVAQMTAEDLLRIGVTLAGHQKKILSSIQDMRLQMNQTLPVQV

[9] = target: T8, FGFR3 (Homo sapiens, UniProt P22607)
T8 construct: purchased Eurofins DiscoverX KINOMEscan (scanTK)
T8 sequence (P22607 23-806): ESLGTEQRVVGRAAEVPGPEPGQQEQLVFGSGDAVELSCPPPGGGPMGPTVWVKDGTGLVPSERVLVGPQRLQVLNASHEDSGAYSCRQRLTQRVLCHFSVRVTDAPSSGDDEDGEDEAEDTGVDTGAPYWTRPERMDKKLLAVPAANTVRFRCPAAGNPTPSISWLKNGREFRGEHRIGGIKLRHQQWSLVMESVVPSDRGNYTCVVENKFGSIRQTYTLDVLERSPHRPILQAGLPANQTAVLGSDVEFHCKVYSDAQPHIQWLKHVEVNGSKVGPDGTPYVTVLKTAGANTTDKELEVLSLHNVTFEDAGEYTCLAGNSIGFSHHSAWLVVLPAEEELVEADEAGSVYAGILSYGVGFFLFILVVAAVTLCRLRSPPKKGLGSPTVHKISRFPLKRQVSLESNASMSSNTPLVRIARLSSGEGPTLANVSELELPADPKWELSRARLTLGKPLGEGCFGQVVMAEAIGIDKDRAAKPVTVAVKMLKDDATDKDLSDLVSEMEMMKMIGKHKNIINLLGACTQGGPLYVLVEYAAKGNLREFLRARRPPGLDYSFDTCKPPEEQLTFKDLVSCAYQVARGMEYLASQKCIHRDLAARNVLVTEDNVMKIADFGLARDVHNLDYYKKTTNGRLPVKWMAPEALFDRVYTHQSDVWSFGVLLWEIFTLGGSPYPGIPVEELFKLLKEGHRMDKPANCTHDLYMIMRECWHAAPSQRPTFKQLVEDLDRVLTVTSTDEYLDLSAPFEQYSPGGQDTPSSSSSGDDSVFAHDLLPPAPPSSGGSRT

[10] = target: T9, MET (Homo sapiens, UniProt P08581)
T9 construct: purchased Eurofins DiscoverX KINOMEscan (scanTK)

[11] = target: T10, MET(M1250T) (Homo sapiens, UniProt P08581, M1250T)
T10 construct: purchased Eurofins DiscoverX KINOMEscan (scanTK)
T10 sequence (P08581 25-1390 M1250T): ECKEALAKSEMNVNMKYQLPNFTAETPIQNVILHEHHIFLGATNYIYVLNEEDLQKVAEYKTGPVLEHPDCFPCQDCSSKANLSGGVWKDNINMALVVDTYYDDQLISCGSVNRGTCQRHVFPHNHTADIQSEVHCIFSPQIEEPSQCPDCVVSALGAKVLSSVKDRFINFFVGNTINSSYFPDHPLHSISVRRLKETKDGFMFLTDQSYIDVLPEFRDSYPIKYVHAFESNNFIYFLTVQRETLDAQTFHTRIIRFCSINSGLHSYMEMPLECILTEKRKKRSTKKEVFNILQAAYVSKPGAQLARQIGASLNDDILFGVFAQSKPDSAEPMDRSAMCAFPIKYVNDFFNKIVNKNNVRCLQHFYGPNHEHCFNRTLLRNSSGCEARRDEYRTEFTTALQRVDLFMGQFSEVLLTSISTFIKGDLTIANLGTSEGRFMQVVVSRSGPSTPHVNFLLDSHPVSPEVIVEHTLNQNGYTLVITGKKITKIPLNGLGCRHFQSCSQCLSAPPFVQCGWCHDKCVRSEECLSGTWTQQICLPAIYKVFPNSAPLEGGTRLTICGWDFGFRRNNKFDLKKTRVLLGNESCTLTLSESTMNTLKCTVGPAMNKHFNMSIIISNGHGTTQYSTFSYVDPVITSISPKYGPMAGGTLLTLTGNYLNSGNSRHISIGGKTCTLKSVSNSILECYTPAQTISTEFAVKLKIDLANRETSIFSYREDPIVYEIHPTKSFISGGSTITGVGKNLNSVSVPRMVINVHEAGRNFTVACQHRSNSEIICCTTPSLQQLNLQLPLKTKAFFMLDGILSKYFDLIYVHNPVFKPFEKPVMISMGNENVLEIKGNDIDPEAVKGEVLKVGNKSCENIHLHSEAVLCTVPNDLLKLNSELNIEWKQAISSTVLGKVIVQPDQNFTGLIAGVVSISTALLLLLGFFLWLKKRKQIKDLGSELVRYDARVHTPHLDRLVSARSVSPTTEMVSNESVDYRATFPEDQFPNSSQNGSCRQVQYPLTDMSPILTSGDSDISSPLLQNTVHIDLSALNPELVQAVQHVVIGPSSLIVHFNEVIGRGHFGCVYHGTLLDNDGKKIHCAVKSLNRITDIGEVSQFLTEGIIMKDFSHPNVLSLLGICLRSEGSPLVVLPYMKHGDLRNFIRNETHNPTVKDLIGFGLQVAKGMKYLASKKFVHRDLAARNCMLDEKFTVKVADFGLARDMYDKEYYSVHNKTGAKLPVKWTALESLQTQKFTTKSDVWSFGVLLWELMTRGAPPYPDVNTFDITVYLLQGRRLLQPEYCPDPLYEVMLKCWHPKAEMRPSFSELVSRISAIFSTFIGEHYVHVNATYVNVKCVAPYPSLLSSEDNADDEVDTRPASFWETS

[12] = target: T11, TIE1 (Homo sapiens, UniProt P35590)
T11 construct: purchased Eurofins DiscoverX KINOMEscan (scanTK)
T11 sequence (P35590 22-1138): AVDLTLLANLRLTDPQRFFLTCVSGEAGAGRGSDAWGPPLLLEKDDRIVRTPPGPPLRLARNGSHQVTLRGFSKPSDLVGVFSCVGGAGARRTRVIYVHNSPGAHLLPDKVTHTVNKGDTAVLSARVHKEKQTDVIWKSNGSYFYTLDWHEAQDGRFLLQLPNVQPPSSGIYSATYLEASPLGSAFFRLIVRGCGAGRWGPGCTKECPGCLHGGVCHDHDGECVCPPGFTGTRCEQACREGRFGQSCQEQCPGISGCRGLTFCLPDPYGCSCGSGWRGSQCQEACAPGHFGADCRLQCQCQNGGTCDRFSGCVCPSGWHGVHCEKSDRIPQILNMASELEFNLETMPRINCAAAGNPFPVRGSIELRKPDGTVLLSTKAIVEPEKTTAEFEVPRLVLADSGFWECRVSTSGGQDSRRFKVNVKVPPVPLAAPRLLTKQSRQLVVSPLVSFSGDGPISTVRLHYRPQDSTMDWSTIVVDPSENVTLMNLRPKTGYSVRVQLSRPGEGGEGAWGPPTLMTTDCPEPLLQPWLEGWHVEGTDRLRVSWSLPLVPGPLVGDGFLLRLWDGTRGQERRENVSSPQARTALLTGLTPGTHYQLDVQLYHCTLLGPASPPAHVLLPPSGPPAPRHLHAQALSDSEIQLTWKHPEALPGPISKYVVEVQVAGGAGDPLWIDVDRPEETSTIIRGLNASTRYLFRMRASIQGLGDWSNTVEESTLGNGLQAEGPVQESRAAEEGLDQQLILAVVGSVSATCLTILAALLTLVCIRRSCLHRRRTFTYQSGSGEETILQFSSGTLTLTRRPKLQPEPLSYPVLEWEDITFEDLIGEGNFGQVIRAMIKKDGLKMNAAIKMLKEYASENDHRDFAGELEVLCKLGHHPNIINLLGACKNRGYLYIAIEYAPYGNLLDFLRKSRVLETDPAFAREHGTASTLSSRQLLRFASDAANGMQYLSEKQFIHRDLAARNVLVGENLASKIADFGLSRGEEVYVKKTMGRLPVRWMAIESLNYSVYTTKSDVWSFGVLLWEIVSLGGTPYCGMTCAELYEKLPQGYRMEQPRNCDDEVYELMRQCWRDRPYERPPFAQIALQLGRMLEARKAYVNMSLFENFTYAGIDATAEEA

| Structure (SMILES) | difference in %Control versus compound Ib at 1 µM ([1]; @1000nM) [%] | remaining binding at 1 µM ([1]; @1000nM, read-out: %Control) [%] | remaining binding at 1 µM ([1]; read-out: %Control @1000nM) [%] | difference in %Control from reference compound Ib at 1 µM ([2]; @1000nM) [%] | remaining binding at 1 µM ([2]; @1000nM, read-out: %Control) [%] | remaining binding at 1 µM ([2]; read-out: %Control @1000nM) [%] | difference in %Control versus reference compound Ib at 1 µM ([3]; @1000nM) [%] | remaining binding at 1 µM ([3]; @1000nM, read-out: %Control) [%] | remaining binding at 1 µM ([3]; read-out: %Control @1000nM) [%] | difference in %Control vs reference Ib at 1 µM ([4]; @1000nM) [%] | remaining binding at 1 µM ([4]; @1000nM, read-out: %Control) [%] | remaining binding at 1 µM ([4]; read-out: %Control @1000nM) [%] | difference in %Control from reference compound Ib at 1 µM ([5]; @1000nM) [%] | remaining binding at 1 µM ([5]; @1000nM, read-out: %Control) [%] | remaining binding at 1 µM ([5]; read-out: %Control @1000nM) [%] | %Control @1000nM [6] [%] | % difference (compound - Ib %Control) [6] [%] | %Control [6] [%] | difference in %Control from compound Ib at 1 µM ([7]; @1000nM) [%] | remaining binding at 1 µM ([7]; @1000nM, read-out: %Control) [%] | other results |
| --- | --- | --- | --- | --- | --- | --- | --- | --- | --- | --- | --- | --- | --- | --- | --- | --- | --- | --- | --- | --- | --- |
| COC(=O)c1cnc(S(C)(=O)=O)nc1N1CCCC(n2nc(-c3ccc(Oc4ccccc4)cc3)c3c(N)ncnc32)C1 (stereo not drawn) [Compound 8b, Methyl 4-(3-(4-Amino-3-(4-phenoxyphenyl)-1H-pyrazolo[3,4-d]pyrimidin-1-yl)piperidin-1-yl)-2-(methylsulfonyl)pyrimidine-5-carboxylate] | 30 | 82 | 82 | 6 | 79 | 79 | 52 | 65 | 65 | 0.35 | 0.4 | 0.4 | 73 | 84 | 84 | 65 | 62.4 | 65 | 15 | 92 | remaining binding at 1 µM ([7]; read-out: %Control @1000nM): 92%; difference in %Control versus compound Ib at 1 µM ([8]; @1000nM): -1%; remaining binding at 1 µM ([8]; @1000nM, read-out: %Control): 97%; remaining binding at 1 µM ([8]; read-out: %Control @1000nM): 97%; difference in %Control versus compound Ib at 1 µM ([9]; @1000nM): 47%; remaining binding at 1 µM ([9]; @1000nM, read-out: %Control): 95%; remaining binding at 1 µM ([9]; read-out: %Control @1000nM): 95%; remaining binding at 1 µM ([10]; @1000nM, read-out: %Control): 100%; remaining binding at 1 µM ([10]; read-out: %Control @1000nM): 100%; remaining binding at 1 µM ([11]; @1000nM, read-out: %Control): 96%; remaining binding at 1 µM ([11]; read-out: %Control @1000nM): 96%; remaining binding at 1 µM ([12]; @1000nM, read-out: %Control): 77%; remaining binding at 1 µM ([12]; read-out: %Control @1000nM): 77% |
| CNC(=O)c1cnc(S(C)(=O)=O)nc1N1CCCC(n2nc(-c3ccc(Oc4ccccc4)cc3)c3c(N)ncnc32)C1 (stereo not drawn) [Compound 8d, 4-(3-(4-Amino-3-(4-phenoxyphenyl)-1H-pyrazolo[3,4-d]pyrimidin-1-yl)piperidin-1-yl)-N-methyl-2-(methylsulfonyl)pyrimidine-5-carboxamide] | 33 | 85 | 85 | 17 | 90 | 90 | 13 | 26 | 26 | -0.05 | 0 | 0 | 74 | 85 | 85 | 30 | 27.4 | 30 | 20 | 97 | remaining binding at 1 µM ([7]; read-out: %Control @1000nM): 97%; difference in %Control versus compound Ib at 1 µM ([8]; @1000nM): 2%; remaining binding at 1 µM ([8]; @1000nM, read-out: %Control): 100%; remaining binding at 1 µM ([8]; read-out: %Control @1000nM): 100%; difference in %Control versus compound Ib at 1 µM ([9]; @1000nM): 51%; remaining binding at 1 µM ([9]; @1000nM, read-out: %Control): 99%; remaining binding at 1 µM ([9]; read-out: %Control @1000nM): 99%; remaining binding at 1 µM ([10]; @1000nM, read-out: %Control): 100%; remaining binding at 1 µM ([10]; read-out: %Control @1000nM): 100%; remaining binding at 1 µM ([11]; @1000nM, read-out: %Control): 100%; remaining binding at 1 µM ([11]; read-out: %Control @1000nM): 100%; remaining binding at 1 µM ([12]; @1000nM, read-out: %Control): 69%; remaining binding at 1 µM ([12]; read-out: %Control @1000nM): 69% |
